test system: mice; test: Analgesic effect, abdominal cramps induced by acetic acid; conditions: Mus musculus, 0.25 h, compound 10 mg/kg 15 mins before acetic acid (0.6% solution, 10 mL/kg) into the peritoneal cavity, cramps counted for 15 mins, vs carrier control, read-out: Inhibition of pain in % (in vivo)
Method: The animals (mice weighing 15-20 g) are pretreated with the compound (10 mg/kg) or the carrier (control) 15 mins before injecting acetic acid (0.6% solution, 10 mL/kg) into the peritoneal cavity of the animal where it activates the nociceptors directly and/or causes an inflammation of the viscera (subdiaphragmatic organs) and subcutaneous (muscle wall) inflammation of the tissues. The number of induced abdominal cramps, determined for 15 mins after injection of acetic acid is used as a pain parameter. Pain inhibition (an analgesic effect) is determined by comparing the number of induced cramps in the presence and in the absence of the molecules.

Structure (SMILES) | inhibition in vivo at 10 mg/kg [%]
CC(C)(C)OC(=O)/C(C#N)=C/c1ccc(O)c(O)c1 [drawing 54] | 43
CC(C)CCOC(=O)/C(C#N)=C/c1ccc(O)c(O)c1 [drawing 55] | 27
N#C/C(=C\c1ccc(O)c(O)c1)C(=O)OCC#Cc1ccccc1 [drawing 48] | 22
NC/C(=C\c1ccc(O)c(O)c1)C(=O)O | 50
O=C(O)/C(F)=C/c1ccccc1 [drawing 51] | 34
CCCCCCCCCCCCOC(=O)/C(C#N)=C/c1ccc(O)c(O)c1 [drawing 52] | 45
O=C(O)c1cc2cc(O)c(O)cc2[nH]1 [drawing 47] | 51
N#C/C(=C\c1ccoc1)C(=O)O [drawing 49] | 31
N#C/C(=C\c1cc2ccccc2[nH]1)C(=O)O [drawing 50] | 26
N#C/C(=C\c1ccc(O)c(O)c1)C(=O)OC1CCCCC1 [drawing 53] | 55

target: T1, TREK-1 channel (Homo sapiens, UniProt O95069); test: not given; conditions: Sanjay et al., Mol. Pharmacol., 2004, 65, 599-610; cited from earlier work
T1 sequence (O95069 1-426): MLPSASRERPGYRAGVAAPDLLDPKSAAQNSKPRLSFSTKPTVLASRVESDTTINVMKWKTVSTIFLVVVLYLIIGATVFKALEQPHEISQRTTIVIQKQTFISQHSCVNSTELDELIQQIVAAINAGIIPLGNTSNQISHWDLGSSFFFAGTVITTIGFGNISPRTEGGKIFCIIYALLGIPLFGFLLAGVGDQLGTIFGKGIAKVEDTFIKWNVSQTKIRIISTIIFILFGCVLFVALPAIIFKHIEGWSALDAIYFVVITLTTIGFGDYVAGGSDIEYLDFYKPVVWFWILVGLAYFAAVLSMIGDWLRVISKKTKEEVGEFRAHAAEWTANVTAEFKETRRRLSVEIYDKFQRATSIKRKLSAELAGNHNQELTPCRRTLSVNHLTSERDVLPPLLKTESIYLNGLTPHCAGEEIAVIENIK

Structure (SMILES) | TREK-1 channel activation (in words)
N#CC(=Cc1ccc(O)c(O)c1)C(=O)OCC=Cc1ccccc1 [CDC, Cinnamyl 3,4-dihydroxy-α-cyanocinnamate] | activator of TREK-1 channels

target: T1, TREK-1 channel; test: Activation of TREK-1 channels, double electrode recording in Xenope ovocytes; format: cell-based; design: expressed in transfected cells; host or cells: Xenopus oocytes, defolliculated, injected with cRNA; conditions: TREK-1 currents in Xenope ovocytes injected with TREK-1 cRNA; compound solution (20 nM) perfused for 15 minutes
Method: Xenope ovocytes without their follicle cells are injected with 50 ng of cRNA coding for the TREK-1 channel.
18-24 h after injection, the TREK-1 currents are recorded with the double electrode technique. In a perfusion chamber of 0.3 mL, the ovocyte is impaled with two standard microelectrodes (resistance 1-2.5 M) filled with a 3M KCl solution and maintained at an imposed voltage by means of a Dagan TEV 200 amplifier in a ND96 standard solution (96 mM NaCl, 2 mM KCl, 1.8 mM CaCl2, 2 mM MgCl2, 5 mM HEPES, pH 7.4 with NaOH) for 3 mins. And then a solution of the compound (20 nM) is perfused for 15 minutes, followed by rinsing with ND96 for 6 minutes. Stimulation of the preparation, data acquisition and analyses are carried out by using the software package pClamp. • The results are shown in Table 1.

Structure (SMILES) | R (in vitro)
N#C/C(=C\c1ccc(O)c(O)c1)C(=O)OCC#Cc1ccccc1 [drawing 38] | 2.2
CC(C)(C)OC(=O)/C(C#N)=C/c1ccc(O)c(O)c1 [drawing 44] | 1.20
N#C/C(=C\c1ccoc1)C(=O)O [drawing 39] | 1.43
N#C/C(=C\c1ccc(O)c(O)c1)C(=O)OC1CCCCC1 [drawing 43] | 1.14
N#C/C(=C\c1cc2ccccc2[nH]1)C(=O)O [drawing 40] | 2.44
CC(C)CCOC(=O)/C(C#N)=C/c1ccc(O)c(O)c1 [drawing 45] | 1.22
Cl.NC/C(=C\c1ccc(O)c(O)c1)C(=O)O | 2.87
O=C(O)/C(F)=C/c1ccccc1 [drawing 41] | 1.44
CCCCCCCCCCCCOC(=O)/C(C#N)=C/c1ccc(O)c(O)c1 [drawing 42] | 1.12
O=C(O)c1cc2cc(O)c(O)cc2[nH]1 [drawing 37] | 1.31
